Assays:
[1] = (§1) The drug is tested on Z-018 corresponding to pig gut metagenome with ENA study accession number: PRJEB37062 and ENA sample accession number: ERS12561817 for biotransformation under anaerobic condition. The drug concentrations were measured over 9 timepoints collected between 0 and 24 hours of incubation by liquid-chromatography-coupled mass spectrometry (LC–MS); conditions: 2 µM
[2] = human gut metagenome, 24 h, 2 µM
[3] = as §1, with “Z-017” for “Z-018”, “mouse” for “pig”, “ERS12561816” for “ERS12561817”; conditions: 2 µM
[4] = human gut metagenome, 24 h, 2 µM; remark: listed apart in the source
[5] = as §1, with “Z-025” for “Z-018”, “rabbit” for “pig”, “ERS12561824” for “ERS12561817”; conditions: 2 µM
[6] = human gut metagenome, 24 h, 2 µM; remark: listed apart in the source
[7] = human gut metagenome, 24 h, 2 µM; remark: listed apart in the source
[8] = as §1, with “WLS-006” for “Z-018”, “human” for “pig”, “ERS12561741” for “ERS12561817”; conditions: 2 µM
[9] = as §1, with “Z-009” for “Z-018”, “ERS12561809” for “ERS12561817”; conditions: 2 µM
[10] = human gut metagenome, 24 h, 2 µM; remark: listed apart in the source
[11] = as §1, with “Z-005” for “Z-018”, “to” for “to pig gut”, “ERS12561805” for “ERS12561817”; conditions: 2 µM
[12] = human gut metagenome, 24 h, 2 µM; remark: listed apart in the source
[13] = as §1, with “Z-024” for “Z-018”, “ERS12561823” for “ERS12561817”; conditions: 2 µM
[14] = human gut metagenome, 24 h, 2 µM; remark: listed apart in the source
[15] = as §1, with “WLS-073” for “Z-018”, “human” for “pig”, “ERS12561749” for “ERS12561817”; conditions: 2 µM
[16] = as §1, with “WLS-086” for “Z-018”, “human” for “pig”, “ERS12561752” for “ERS12561817”; conditions: 2 µM
[17] = as §1, with “Z-028” for “Z-018”, “mouse” for “pig”, “ERS12561827” for “ERS12561817”; conditions: 2 µM
[18] = human gut metagenome, 24 h, 2 µM; remark: listed apart in the source
[19] = as §1, with “WLS-082” for “Z-018”, “human” for “pig”, “ERS12561751” for “ERS12561817”; conditions: 2 µM
[20] = human gut metagenome, 24 h, 2 µM; remark: listed apart in the source
Further: call rule not given here.

Row | Structure (SMILES) | Bacterial Biotransformation [1] | Bacterial Biotransformation [2] | Bacterial Biotransformation [3] | Bacterial Biotransformation [4] | Bacterial Biotransformation [5] | Bacterial Biotransformation [6] | Bacterial Biotransformation [7] | Bacterial Biotransformation [8] | Bacterial Biotransformation [9] | Bacterial Biotransformation [10] | Bacterial Biotransformation [11] | Bacterial Biotransformation [12] | Bacterial Biotransformation [13] | Bacterial Biotransformation [14] | Bacterial Biotransformation [15] | Bacterial Biotransformation [16] | Bacterial Biotransformation [17] | Bacterial Biotransformation [18] | Bacterial Biotransformation [19] | Bacterial Biotransformation [20]
1 | OC(c1cc(C(F)(F)F)nc2c(C(F)(F)F)cccc12)C1CCCCN1 (stereo not given) [MEFLOQUINE] | Compound metabolized | Compound NOT metabolized | Compound NOT metabolized | Compound metabolized | Compound NOT metabolized | Compound NOT metabolized | Compound metabolized | Compound metabolized | Compound metabolized | Compound NOT metabolized | Compound NOT metabolized | Compound metabolized | Compound metabolized | Compound metabolized | Compound metabolized | Compound metabolized | Compound NOT metabolized | Compound metabolized | Compound metabolized | Compound NOT metabolized
2 | CC(=O)O[C@]1(C(C)=O)CC[C@H]2[C@@H]3C=C(C)C4=CC(=O)CC[C@]4(C)[C@H]3CC[C@@]21C [MEGESTROL ACETATE] | Compound metabolized | Compound metabolized | Compound metabolized | Compound metabolized | Compound metabolized | Compound metabolized | Compound metabolized | Compound metabolized | Compound metabolized | Compound metabolized | Compound metabolized | Compound metabolized | Compound NOT metabolized | Compound metabolized | Compound metabolized | Compound metabolized | Compound metabolized | Compound metabolized | Compound metabolized | Compound metabolized
3 | CC12CC3CC(C)(C1)CC(N)(C3)C2 [MEMANTINE] | Compound NOT metabolized | Compound NOT metabolized | Compound NOT metabolized | Compound NOT metabolized | Compound NOT metabolized | Compound NOT metabolized | Compound NOT metabolized | Compound NOT metabolized | Compound NOT metabolized | Compound NOT metabolized | Compound NOT metabolized | Compound NOT metabolized | Compound NOT metabolized | Compound NOT metabolized | Compound NOT metabolized | Compound NOT metabolized | Compound NOT metabolized | Compound NOT metabolized | Compound NOT metabolized | Compound NOT metabolized
4 | Cc1cc(C)cc(OCC2CNC(=O)O2)c1 (stereo not given) [METAXALONE] | Compound NOT metabolized | Compound NOT metabolized | Compound metabolized | Compound NOT metabolized | Compound NOT metabolized | Compound metabolized | Compound metabolized | Compound metabolized | Compound NOT metabolized | Compound metabolized | Compound NOT metabolized | Compound metabolized | Compound NOT metabolized | Compound metabolized | Compound NOT metabolized | Compound metabolized | Compound NOT metabolized | Compound metabolized | Compound metabolized | Compound metabolized
5 | COC(=O)C(c1ccccc1)C1CCCCN1 (stereo not given) [METHYLPHENIDATE] | Compound metabolized | Compound NOT metabolized | Compound NOT metabolized | Compound NOT metabolized | Compound NOT metabolized | Compound NOT metabolized | Compound metabolized | Compound NOT metabolized | Compound metabolized | Compound NOT metabolized | Compound NOT metabolized | Compound NOT metabolized | Compound metabolized | Compound NOT metabolized | Compound NOT metabolized | Compound NOT metabolized | Compound NOT metabolized | Compound metabolized | Compound NOT metabolized | Compound NOT metabolized
6 | CN1CCN2c3ccccc3Cc3ccccc3C2C1 (stereo not given) [MIANSERIN] | Compound metabolized | Compound NOT metabolized | Compound NOT metabolized | Compound metabolized | Compound metabolized | Compound NOT metabolized | Compound NOT metabolized | Compound NOT metabolized | Compound metabolized | Compound metabolized | Compound NOT metabolized | Compound metabolized | Compound metabolized | Compound NOT metabolized | Compound NOT metabolized | Compound metabolized | Compound NOT metabolized | Compound metabolized | Compound NOT metabolized | Compound NOT metabolized
7 | CC#C[C@]1(O)CC[C@H]2[C@@H]3CCC4=CC(=O)CCC4=C3[C@@H](c3ccc(N(C)C)cc3)C[C@@]21C [MIFEPRISTONE] | Compound metabolized | Compound NOT metabolized | Compound NOT metabolized | Compound NOT metabolized | Compound NOT metabolized | Compound NOT metabolized | Compound NOT metabolized | Compound metabolized | Compound metabolized | Compound metabolized | Compound metabolized | Compound NOT metabolized | Compound metabolized | Compound metabolized | Compound NOT metabolized | Compound metabolized | Compound NOT metabolized | Compound NOT metabolized | Compound metabolized | Compound NOT metabolized
8 | CC(C)(C)NCC(O)COc1cccc2c1CC(O)C(O)C2 (stereo not given) [NADOLOL] | Compound NOT metabolized | Compound NOT metabolized | Compound NOT metabolized | Compound NOT metabolized | Compound NOT metabolized | Compound metabolized | Compound metabolized | Compound NOT metabolized | Compound metabolized | Compound metabolized | Compound NOT metabolized | Compound NOT metabolized | Compound NOT metabolized | Compound NOT metabolized | Compound NOT metabolized | Compound metabolized | Compound NOT metabolized | Compound NOT metabolized | Compound NOT metabolized | Compound NOT metabolized
